The structures appear in SMILES notation. In brackets after ≈: the same amount, converted by molar mass.

What all share (type): cell-based
For experiment [1], the system named is Streptococcus faecalis ATCC 29212. The experiment can be described thus: MIC, procedure B (agar, Steers replicating device). As to conditions: Enterococcus faecalis, ATCC29212. The method, then:
(§1) The compounds of the invention are tested for their antibacterial activity. The test can be carried out in two ways:
(§2) B. The organisms used in the test comprise the following:
(§3) Staphylococcus aureus (penicillin-sensitive and resistant), Pseudomonas aeruginosa, Escherichia coli, […] pneumoniae, Bordetella bronchiseptica, Proteus vulgaris, P. mirabilis, Acinetobacter calcoaceticus.
(§4) Test organisms may be added or deleted in order to reflect current clinical patterns of antibiotic susceptibility or shifts in pathogenic potential.
(§5) Organisms are normally grown for 18 hours in Brain Heart Infusion at 35° C. Cultures are adjusted with saline to MacFarland No. 1.5 standard prior to use.
(§6) Stock concentrations (e.g […] or units per ml) are prepared in a suitable vehicle. Two-fold dilutions are made. One ml quantities of each dilution are incorporated in 9 ml of the appropriate agar (e.g. Seed) in sterile Petri plates. The hardened surface is inoculated with test organisms by use of a Steers replicating device. The plates are incubated (e.g. 18 hours at 35° C.) and activity is determined.

The test system of experiment [2] is Staphylococcus aureus ATCC 29213. Description: MIC, procedure B (agar, Steers replicating device). As to conditions: ATCC29213. On the procedure:
as §1, §2, §3, §4, §5, §6

Experiment [3] relates to Escherichia coli ATCC 25922. Description: MIC, procedure B (agar, Steers replicating device). As to conditions: ATCC25922. The method, then: as §1, §2, §3, §4, §5, §6
Experiment [4] has as its system Enterobacter cloacae ATCC 13047. The experiment can be described thus: MIC, procedure B (agar, Steers replicating device). As to conditions: ATCC13047. On the procedure:
as §1, §2, §3, §4, §5, §6

Experiment [5] concerns Serratia marcescens ATCC 13880. The experiment can be described thus: MIC, procedure B (agar, Steers replicating device). As to conditions: ATCC13880. On the procedure: as §1, §2, §3, §4, §5, §6
For experiment [6], the system named is Pseudomonas aeruginosa ATCC 27853. Description: MIC, procedure B (agar, Steers replicating device). As to conditions: ATCC27853. The method, then:
as §1, §2, §3, §4, §5, §6

Experiment [7] has as its system Proteus vulgaris A 84354 1. Description: MIC, procedure B (agar, Steers replicating device). As to conditions: A843541. The method, then: as §1, §2, §3, §4, §5, §6
The subject of experiment [8] is Klebsiella pneunomiae KL-1. Description: MIC, procedure B (agar, Steers replicating device). As to conditions: KL1. The method, then:
as §1, §2, §3, §4, §5, §6

Experiment [9] concerns Streptococcus faecalis ATCC 29212. Description: MIC, procedure A (two-fold dilutions in broth, Microtiter plate). As to conditions: Enterococcus faecalis, ATCC29212. The method, then: as §1
(§7) A. The organisms used in the test comprise the following:
as §3, §4
(§8) Stock solution of appropriate medium (e.g. Mueller-Hinton Broth) is sterilized. Starting at a predetermined concentration (e.g. 250 μg/ml), two-fold dilutions are made with the Dynatech Automatic Diluter in a Microtiter plate of 8 rows of 12 wells each in which 11 wells in each row contain 50 μl of medium (e.g. Mueller-Hinton Broth) and the 12th well contains in 100 μl an aliquot of the compound to be tested. The diluted plates are inoculated using the Dynatech Automatic Inoculator which delivers the final inoculum (e.g. 10^5 cfu/ml of a seven-hour culture which has been incubated at 35° C.).
(§9) Plates are sealed with tape and incubated (e.g. 18 hours at 35° C.).

Experiment [10] deals with Staphylococcus aureus ATCC 29213. Described as above. As to conditions: ATCC29213. On the procedure:
as §1, §7, §3, §4, §8, §9

Experiment [11] relates to Escherichia coli ATCC 25922. Described as above. As to conditions: ATCC25922. On the procedure:
as §1, §7, §3, §4, §8, §9

Experiment [12] has as its system Enterobacter cloacae ATCC 13047. The description is as above. As to conditions: ATCC13047. The method, then: as §1, §7, §3, §4, §8, §9
Experiment [13] has as its system Serratia marcescens ATCC 13880. The description is as above. As to conditions: ATCC13880. The method, then: as §1, §7, §3, §4, §8, §9
Experiment [14] has as its system Pseudomonas aeruginosa ATCC 27853. The experiment is described as above. As to conditions: ATCC27853. On the procedure:
as §1, §7, §3, §4, §8, §9

Experiment [15] concerns Proteus vulgaris A 84354 1. The description is as above. As to conditions: A843541. The method, then:
as §1, §7, §3, §4, §8, §9

In experiment [16] the test system is Klebsiella pneunomiae KL-1. The experiment is described as above. As to conditions: KL1. On the procedure: as §1, §7, §3, §4, §8, §9

`CO/N=C(\C(=O)N[C@@H]1C(=O)N2C(C(=O)O)=C(CN3C(=O)c4cscc4S3(=O)=O)CS[C@H]12)c1csc(N)n1` [1 C.]: the MIC was found to be 8 µg/mL (≈ 13.7 µM) in [1]; 4 µg/mL (≈ 6.84 µM) in experiment [2]; 2 µg/mL (≈ 3.42 µM) in experiment [3]; 4 µg/mL (≈ 6.84 µM) in [4]; 2 µg/mL (≈ 3.42 µM) in experiment [5]; 64 µg/mL (≈ 109 µM) in [6]. In addition, the MIC in experiment [7] turned out to be 0.5 µg/mL (≈ 0.855 µM); in [8], 1 µg/mL (≈ 1.71 µM).
Regarding `CO/N=C(\C(=O)N[C@@H]1C(=O)N2C(C(=O)OC(C)(C)C)=C(CN3C(=O)c4ccccc4S3(=O)=O)CS[C@H]12)c1csc(N)n1` [2 B.], the minimal inhibitory concentration (MIC) in [9] is 16 µg/mL (≈ 25.2 µM); in [10], 8 µg/mL (≈ 12.6 µM); in [11], 2 µg/mL (≈ 3.15 µM); in experiment [12], 16 µg/mL (≈ 25.2 µM); in [13], 8 µg/mL (≈ 12.6 µM); in experiment [14], 64 µg/mL (≈ 101 µM). For the same compound, the MIC in [15] and in experiment [16] was 1 µg/mL (≈ 1.58 µM) in each case.
Take `CO/N=C(\C(=O)N[C@@H]1C(=O)N2C(C(=O)O)=C(CN3C(=O)c4ccccc4S3(=O)=O)CS[C@H]12)c1csc(N)n1` [2 C.]: the MIC in [1] came to 8 µg/mL (≈ 13.8 µM); in [2], 4 µg/mL (≈ 6.91 µM); in [3], 1 µg/mL (≈ 1.73 µM); in experiment [4], 8 µg/mL (≈ 13.8 µM); in experiment [5], 4 µg/mL (≈ 6.91 µM); in [6] it was 32 µg/mL (≈ 55.3 µM). Moreover, the MIC in experiment [7] and in experiment [8] was 0.5 µg/mL (≈ 0.864 µM) in each case.
Consider `CO/N=C(\C(=O)N[C@@H]1C(=O)N2C(C(=O)OC(C)(C)C)=C(CN3C(=O)c4cscc4S3(=O)=O)CS[C@H]12)c1csc(N)n1` [1 B.], for which the MIC in experiment [9] stood at 256 µg/mL (≈ 400 µM); in [10], 32 µg/mL (≈ 49.9 µM); in [11], 8 µg/mL (≈ 12.5 µM); in experiment [12] it was 64 µg/mL (≈ 99.9 µM); in [13] it was 32 µg/mL (≈ 49.9 µM); in [14] it was 128 µg/mL (≈ 200 µM). Further, the MIC in experiment [15] and in experiment [16] was 4 µg/mL (≈ 6.24 µM) each time.
As for `CO/N=C(\C(=O)N[C@@H]1C(=O)N2C(C(=O)OC(C)(C)C)=C(CN3C(=O)c4cccnc4S3(=O)=O)CS[C@H]12)c1csc(N)n1` [3 B.], the MIC in experiment [9] was 256 µg/mL (≈ 403 µM); in experiment [10], 128 µg/mL (≈ 201 µM); in experiment [11] it was 4 µg/mL (≈ 6.29 µM); in [12], 128 µg/mL (≈ 201 µM); in experiment [13], 8 µg/mL (≈ 12.6 µM); in experiment [14], 256 µg/mL (≈ 403 µM). Further, the MIC in [15] was found to be 8 µg/mL (≈ 12.6 µM); in experiment [16], 2 µg/mL (≈ 3.15 µM).
Turning to `CO/N=C(\C(=O)N[C@@H]1C(=O)N2C(C(=O)O)=C(CN3C(=O)c4cccnc4S3(=O)=O)CS[C@H]12)c1csc(N)n1` [3 C.], the MIC in [1] turned out to be 128 µg/mL (≈ 221 µM); in experiment [2], 32 µg/mL (≈ 55.2 µM); in experiment [3], 2 µg/mL (≈ 3.45 µM); in experiment [4], 16 µg/mL (≈ 27.6 µM); in [5], 2 µg/mL (≈ 3.45 µM); in experiment [6] it was 128 µg/mL (≈ 221 µM). For the same compound, the results for the MIC in [7] and in experiment [8] were 2 µg/mL (≈ 3.45 µM) and 1 µg/mL (≈ 1.73 µM), respectively.

The values above are taken from patent publication US4728732A, “C-3'acylsulfonamido cephalosporin analogs” (American Home Products Corporation, priority 1985, dated 1988).
